Results from PMC8222254, “Self-assembly of an anion receptor with metal-dependent kinase inhibition and potent in vitro anti-cancer properties” (Nature Communications, 2021).
Several values for one entry are separate records, joined by “and”; a condition that tells them apart may be missing. Identical values can stand only once.

Key:
[1] = target: T1, 140 purified human kinases (Homo sapiens, UniProt Q99683); experiment: Kinase inhibition screen, cell-free 33P ATP assay at 10 μM; assay type: biochemical
T1 sequence (Q99683 1-1374): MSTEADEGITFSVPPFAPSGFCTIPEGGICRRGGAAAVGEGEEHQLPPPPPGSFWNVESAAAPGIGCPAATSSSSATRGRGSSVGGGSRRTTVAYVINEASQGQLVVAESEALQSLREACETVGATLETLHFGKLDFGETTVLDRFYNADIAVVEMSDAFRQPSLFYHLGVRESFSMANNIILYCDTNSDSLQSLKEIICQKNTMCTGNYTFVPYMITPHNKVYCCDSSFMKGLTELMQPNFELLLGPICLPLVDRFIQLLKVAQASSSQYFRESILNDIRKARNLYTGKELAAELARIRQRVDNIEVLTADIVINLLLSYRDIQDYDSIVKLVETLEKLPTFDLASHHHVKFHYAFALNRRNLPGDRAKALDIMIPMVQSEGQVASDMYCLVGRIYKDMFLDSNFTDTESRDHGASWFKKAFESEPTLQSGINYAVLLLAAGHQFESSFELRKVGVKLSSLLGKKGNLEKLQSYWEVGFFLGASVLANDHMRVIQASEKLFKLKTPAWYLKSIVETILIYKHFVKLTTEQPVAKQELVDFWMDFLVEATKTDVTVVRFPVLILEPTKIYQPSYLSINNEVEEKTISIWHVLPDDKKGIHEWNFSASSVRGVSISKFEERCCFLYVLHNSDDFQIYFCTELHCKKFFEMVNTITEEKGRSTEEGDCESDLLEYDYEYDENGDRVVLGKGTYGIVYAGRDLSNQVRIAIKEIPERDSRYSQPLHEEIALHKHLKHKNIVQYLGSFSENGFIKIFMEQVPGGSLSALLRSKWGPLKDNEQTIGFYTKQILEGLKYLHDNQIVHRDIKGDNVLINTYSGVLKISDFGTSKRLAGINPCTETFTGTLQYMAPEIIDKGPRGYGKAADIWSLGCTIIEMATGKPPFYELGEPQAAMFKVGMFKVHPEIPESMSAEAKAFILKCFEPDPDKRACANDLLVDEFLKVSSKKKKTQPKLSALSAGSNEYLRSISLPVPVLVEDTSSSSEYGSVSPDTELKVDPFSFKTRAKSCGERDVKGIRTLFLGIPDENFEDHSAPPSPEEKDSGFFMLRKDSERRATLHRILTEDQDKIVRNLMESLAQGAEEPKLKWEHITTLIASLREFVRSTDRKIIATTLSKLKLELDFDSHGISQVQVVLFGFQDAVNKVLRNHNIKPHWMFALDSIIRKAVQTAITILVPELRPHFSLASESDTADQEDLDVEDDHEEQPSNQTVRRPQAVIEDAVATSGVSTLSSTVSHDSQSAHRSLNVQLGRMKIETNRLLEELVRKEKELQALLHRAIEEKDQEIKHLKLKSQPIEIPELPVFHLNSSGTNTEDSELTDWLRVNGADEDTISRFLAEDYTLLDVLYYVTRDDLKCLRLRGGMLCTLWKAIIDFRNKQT
In short: (§1)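 Each complex tested in duplicate at 10 μM; cell-free radiometric assay using ^33P ATP on purified enzymes. Hits mapped by HGNC symbol onto the kinome tree.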

[2] = target: T2, 140 purified human kinases (Homo sapiens, UniProt Q9BXA7); experiment: as above; assay type: biochemical
T2 sequence (Q9BXA7 1-367): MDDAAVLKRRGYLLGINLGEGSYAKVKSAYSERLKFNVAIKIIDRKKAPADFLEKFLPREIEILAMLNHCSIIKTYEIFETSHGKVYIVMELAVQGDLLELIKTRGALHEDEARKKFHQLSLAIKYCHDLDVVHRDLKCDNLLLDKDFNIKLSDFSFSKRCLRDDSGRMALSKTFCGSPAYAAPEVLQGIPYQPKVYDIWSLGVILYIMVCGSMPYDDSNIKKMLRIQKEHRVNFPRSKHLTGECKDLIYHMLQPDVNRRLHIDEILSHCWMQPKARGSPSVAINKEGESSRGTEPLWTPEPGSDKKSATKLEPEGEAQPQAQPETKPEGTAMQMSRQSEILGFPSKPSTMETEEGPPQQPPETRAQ
In short: as §1

CC(=O)[O-].CC(=O)[O-].CC(=O)[O-].CC(=O)[O-].CC(=O)[O-].CC(=O)[O-].[Zn+2].[Zn+2].[Zn+2].c1ccc(-c2csc(NCCN(CCNc3nc(-c4ccccn4)cs3)CCNc3nc(-c4ccccn4)cs3)n2)nc1.c1ccc(-c2csc(NCCN(CCNc3nc(-c4ccccn4)cs3)CCNc3nc(-c4ccccn4)cs3)n2)nc1 [[L2Zn3]6+]
% Inhibition, Mean ([1]; ASK1): 27%
% Inhibition, Run 1 / Run 2 ([1]; ASK1): 31% and 24%
mean % activity ([1]; ASK1): 73%
% activity ([1]; ASK1, duplicate runs): 70% and 76%
% Inhibition, Mean ([2]; TSSK1): 27%
% Inhibition, Run 1 / Run 2 ([2]; TSSK1): 29% and 24%
mean % activity ([2]; TSSK1): 73%
% activity ([2]; TSSK1, duplicate runs): 71% and 76%

[Cu+2].[Cu+2].[Cu+2].c1ccc(-c2csc(NCCN(CCNc3nc(-c4ccccn4)cs3)CCNc3nc(-c4ccccn4)cs3)n2)nc1.c1ccc(-c2csc(NCCN(CCNc3nc(-c4ccccn4)cs3)CCNc3nc(-c4ccccn4)cs3)n2)nc1 [[L2Cu3]6+]
% Inhibition Run 1 ([1]; ASK1): 16.4%
% Inhibition Run 2 ([1]; ASK1): 15.5%
% Inhibition, Mean ([1]; ASK1): 16%
mean % activity ([1]; ASK1): 84%
% activity ([1]; ASK1, Run 1): 83.6%
% activity ([1]; ASK1, Run 2): 84.5%
% Inhibition Run 1 ([2]; TSSK1): 44%
% Inhibition Run 2 ([2]; TSSK1): 46.8%
% Inhibition, Mean ([2]; TSSK1): 45%
mean % activity ([2]; TSSK1): 55%
% activity ([2]; TSSK1, Run 1): 56%
% activity ([2]; TSSK1, Run 2): 53.2%
